Test results: patent publication US20050239656A1, “Pyridine compounds or salts thereof and herbicides containing the same” (priority 2002, published 2005)

test system: barnyardgrass; experiment: Test Example 2: soil surface treatment, upland pot test; format: in vivo, Echinochloa crus-galli L.; details: active ingredient 500 g/ha, observed 20th to 28th day
Summary of the method: (§1)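 Upland soil in pots of 1/170,000 ha is sown; on day 1 after sowing the formulated compound (wettable powder or emulsifiable concentrate, predetermined a.i. amount, water volume 1,500 L/ha) is applied to the soil surface with a small sprayer. Percent control is judged by eye 20–28 days later.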

Compound	Growth controlling degree (%) Barnyardgrass [%]
CC(C)C(c1cnccc1C(F)(F)F)N(C)C(=O)N(C)c1ccccc1 (stereo not drawn) [I-232]	100
Cc1ccc(CC(=O)N(C)C(c2cnccc2C(F)(F)F)C(C)C)c(F)c1 (racemic) [I-109]	0

same assay, conditions: active ingredient 500 g/ha, observed day 21, 0 = non-treated, 100 = complete kill

Compound	Growth controlling degree (%) Barnyardgrass [%]
CC(C)C(c1cnccc1C(F)(F)F)N(C)C(=O)COc1cc(F)ccc1F (stereo not drawn) [Compound I-245]	90

test system: crabgrass; experiment: as above; format: in vivo, Digitaria sanguinalis L.; details: active ingredient 500 g/ha, observed 20th to 28th day
Summary of the method: as §1

Compound	Growth controlling degree (%) Crabgrass [%]
CC(C)C(c1cnccc1C(F)(F)F)N(C)C(=O)N(C)c1ccccc1 (stereo not drawn) [I-232]	100
Cc1ccc(CC(=O)N(C)C(c2cnccc2C(F)(F)F)C(C)C)c(F)c1 (racemic) [I-109]	98

same assay, conditions: active ingredient 500 g/ha, observed day 21, 0 = non-treated, 100 = complete kill

Compound	Growth controlling degree (%) Crabgrass [%]
CC(C)C(c1cnccc1C(F)(F)F)N(C)C(=O)COc1cc(F)ccc1F (stereo not drawn) [Compound I-245]	80

test system: green foxtail; experiment: as above; format: in vivo, Setaria viridis L.; details: active ingredient 500 g/ha, observed 20th to 28th day
Summary of the method: as §1

Compound	Growth controlling degree (%) Green foxtail [%]
CC(C)C(c1cnccc1C(F)(F)F)N(C)C(=O)N(C)c1ccccc1 (stereo not drawn) [I-232]	100
Cc1ccc(CC(=O)N(C)C(c2cnccc2C(F)(F)F)C(C)C)c(F)c1 (racemic) [I-109]	70

same assay, conditions: active ingredient 500 g/ha, observed day 21, 0 = non-treated, 100 = complete kill

Compound	Growth controlling degree (%) Green foxtail [%]
CC(C)C(c1cnccc1C(F)(F)F)N(C)C(=O)COc1cc(F)ccc1F (stereo not drawn) [Compound I-245]	80

test system: redroot pigweed; experiment: as above; format: in vivo, Amaranthus retroflexus L.; details: active ingredient 500 g/ha, observed 20th to 28th day
Summary of the method: as §1

Compound	Growth controlling degree (%) Redroot pigweed [%]
CC(C)C(c1cnccc1C(F)(F)F)N(C)C(=O)N(C)c1ccccc1 (stereo not drawn) [I-232]	80
Cc1ccc(CC(=O)N(C)C(c2cnccc2C(F)(F)F)C(C)C)c(F)c1 (racemic) [I-109]	70

same assay, conditions: active ingredient 500 g/ha, observed day 21, 0 = non-treated, 100 = complete kill

Compound	Growth controlling degree (%) Redroot pigweed [%]
CC(C)C(c1cnccc1C(F)(F)F)N(C)C(=O)COc1cc(F)ccc1F (stereo not drawn) [Compound I-245]	50

test system: prickly sida; experiment: as above; format: in vivo, Sida spinosa L.; details: active ingredient 500 g/ha, observed 20th to 28th day
Summary of the method: as §1

Compound	Growth controlling degree (%) Prickly sida [%]
CC(C)C(c1cnccc1C(F)(F)F)N(C)C(=O)N(C)c1ccccc1 (stereo not drawn) [I-232]	95
Cc1ccc(CC(=O)N(C)C(c2cnccc2C(F)(F)F)C(C)C)c(F)c1 (racemic) [I-109]	0

same assay, conditions: active ingredient 500 g/ha, observed day 21, 0 = non-treated, 100 = complete kill

Compound	Growth controlling degree (%) Prickly sida [%]
CC(C)C(c1cnccc1C(F)(F)F)N(C)C(=O)COc1cc(F)ccc1F (stereo not drawn) [Compound I-245]	70

test system: velvetleaf; experiment: as above; format: in vivo, Abutilon theophrasti MEDIC.; details: active ingredient 500 g/ha, observed 20th to 28th day
Summary of the method: as §1

Compound	Growth controlling degree (%) Velvetleaf [%]
CC(C)C(c1cnccc1C(F)(F)F)N(C)C(=O)N(C)c1ccccc1 (stereo not drawn) [I-232]	70
Cc1ccc(CC(=O)N(C)C(c2cnccc2C(F)(F)F)C(C)C)c(F)c1 (racemic) [I-109]	0

same assay, conditions: active ingredient 500 g/ha, observed day 21, 0 = non-treated, 100 = complete kill

Compound	Growth controlling degree (%) Velvetleaf [%]
CC(C)C(c1cnccc1C(F)(F)F)N(C)C(=O)COc1cc(F)ccc1F (stereo not drawn) [Compound I-245]	0

test system: rice; experiment: as above; format: in vivo, Oryza sativa L.; details: active ingredient 500 g/ha, observed 20th to 28th day
Summary of the method: as §1

Compound	Growth controlling degree (%) Rice [%]
CC(C)C(c1cnccc1C(F)(F)F)N(C)C(=O)N(C)c1ccccc1 (stereo not drawn) [I-232]	30
Cc1ccc(CC(=O)N(C)C(c2cnccc2C(F)(F)F)C(C)C)c(F)c1 (racemic) [I-109]	20

same assay, conditions: active ingredient 500 g/ha, observed day 21, 0 = non-treated, 100 = complete kill

Compound	Growth controlling degree (%) Rice [%]
CC(C)C(c1cnccc1C(F)(F)F)N(C)C(=O)COc1cc(F)ccc1F (stereo not drawn) [Compound I-245]	35

test system: corn; experiment: as above; format: in vivo, Zea mays L.; details: active ingredient 500 g/ha, observed 20th to 28th day
Summary of the method: as §1

Compound	Growth controlling degree (%) Corn [%]
CC(C)C(c1cnccc1C(F)(F)F)N(C)C(=O)N(C)c1ccccc1 (stereo not drawn) [I-232]	30
Cc1ccc(CC(=O)N(C)C(c2cnccc2C(F)(F)F)C(C)C)c(F)c1 (racemic) [I-109]	10

same assay, conditions: active ingredient 500 g/ha, observed day 21, 0 = non-treated, 100 = complete kill

Compound	Growth controlling degree (%) Corn [%]
CC(C)C(c1cnccc1C(F)(F)F)N(C)C(=O)COc1cc(F)ccc1F (stereo not drawn) [Compound I-245]	50

test system: soybean; experiment: as above; format: in vivo, Glycine max Merr.; details: active ingredient 500 g/ha, observed 20th to 28th day
Summary of the method: as §1

Compound	Growth controlling degree (%) Soyabean [%]
CC(C)C(c1cnccc1C(F)(F)F)N(C)C(=O)N(C)c1ccccc1 (stereo not drawn) [I-232]	0
Cc1ccc(CC(=O)N(C)C(c2cnccc2C(F)(F)F)C(C)C)c(F)c1 (racemic) [I-109]	0

same assay, conditions: active ingredient 500 g/ha, observed day 21, 0 = non-treated, 100 = complete kill

Compound	Growth controlling degree (%) Soyabean [%]
CC(C)C(c1cnccc1C(F)(F)F)N(C)C(=O)COc1cc(F)ccc1F (stereo not drawn) [Compound I-245]	40

test system: barnyardgrass; experiment: Test Example 3: paddy pot test, application under submerged conditions; format: in vivo, Echinochloa crus-galli L.; details: active ingredient 125 g/ha; submerged application at 0.5 leaf stage; visually observed 14 days after application; 0 = non-treated, 100 = complete kill
Summary of the method: (§2)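 Visual growth-control rating (0 = untreated, 100 = complete kill) 14 days after treatment. The formulated compound, as a diluted wettable powder or emulsifiable concentrate, went into 3–4 cm flood water at a predetermined active-ingredient dose once the weeds reached 0.5 leaf stage (wapato: primary leaf stage).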

Compound	Growth controlling degree (%) Barnyardgrass [%]
Cc1ccc(CC(=O)N(C)C(c2cnccc2C(F)(F)F)C(C)C)c(F)c1 (racemic) [I-109]	95

same assay, conditions: active ingredient 250 g/ha; submerged application at 0.5 leaf stage; visually observed 14 days after application; 0 = non-treated, 100 = complete kill

Compound	Growth controlling degree (%) Barnyardgrass [%]
CC(C)C(c1cnccc1C(F)(F)F)N(C)C(=O)COc1cc(F)ccc1F (stereo not drawn) [Compound I-245]	100

same assay, conditions: active ingredient 500 g/ha; submerged application at 0.5 leaf stage; visually observed 14 days after application; 0 = non-treated, 100 = complete kill

Compound	Growth controlling degree (%) Barnyardgrass [%]
CC(C)C(c1cnccc1C(F)(F)F)N(C)C(=O)N(C)c1ccccc1 (stereo not drawn) [I-232]	100

test system: japanese bulrush; experiment: as above; format: in vivo, Scirpus juncoides; details: active ingredient 125 g/ha; submerged application at 0.5 leaf stage; visually observed 14 days after application; 0 = non-treated, 100 = complete kill
Summary of the method: as §2

Compound	Growth controlling degree (%) Japanese bulrush [%]
Cc1ccc(CC(=O)N(C)C(c2cnccc2C(F)(F)F)C(C)C)c(F)c1 (racemic) [I-109]	90

same assay, conditions: active ingredient 250 g/ha; submerged application at 0.5 leaf stage; visually observed 14 days after application; 0 = non-treated, 100 = complete kill

Compound	Growth controlling degree (%) Japanese bulrush [%]
CC(C)C(c1cnccc1C(F)(F)F)N(C)C(=O)COc1cc(F)ccc1F (stereo not drawn) [Compound I-245]	95

same assay, conditions: active ingredient 500 g/ha; submerged application at 0.5 leaf stage; visually observed 14 days after application; 0 = non-treated, 100 = complete kill

Compound	Growth controlling degree (%) Japanese bulrush [%]
CC(C)C(c1cnccc1C(F)(F)F)N(C)C(=O)N(C)c1ccccc1 (stereo not drawn) [I-232]	90

test system: japanese ribbon wapato; experiment: as above; format: in vivo, Sagittaria pygniaea; details: active ingredient 125 g/ha; submerged application at primary leaf stage; visually observed 14 days after application; 0 = non-treated, 100 = complete kill
Summary of the method: as §2

Compound	Growth controlling degree (%) Japanese ribbon wapato [%]
Cc1ccc(CC(=O)N(C)C(c2cnccc2C(F)(F)F)C(C)C)c(F)c1 (racemic) [I-109]	60

same assay, conditions: active ingredient 250 g/ha; submerged application at primary leaf stage; visually observed 14 days after application; 0 = non-treated, 100 = complete kill

Compound	Growth controlling degree (%) Japanese ribbon wapato [%]
CC(C)C(c1cnccc1C(F)(F)F)N(C)C(=O)COc1cc(F)ccc1F (stereo not drawn) [Compound I-245]	70

same assay, conditions: active ingredient 500 g/ha; submerged application at primary leaf stage; visually observed 14 days after application; 0 = non-treated, 100 = complete kill

Compound	Growth controlling degree (%) Japanese ribbon wapato [%]
CC(C)C(c1cnccc1C(F)(F)F)N(C)C(=O)N(C)c1ccccc1 (stereo not drawn) [I-232]	70

test system: rice (var. Nihonbare); experiment: Test Example 3: paddy pot test, transplanted rice; format: in vivo, Oryza sativa L.; details: active ingredient 125 g/ha, applied 4th day after transplantation, visually observed 21st day after application, 0 = non-treated, 100 = complete kill
Summary of the method: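 Rice (var. Nihonbare) at 2 leaf stage transplanted 3 cm deep into puddled paddy soil under 3–4 cm flooding; on day 4 after transplanting, diluted wettable powder or emulsifiable concentrate applied by pipette under submerged conditions at a set active-ingredient dose. Growth scored visually 21 days after application, 0 (untreated) to 100 (complete kill) %.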

Compound	Growth controlling degree (%) Rice [%]
Cc1ccc(CC(=O)N(C)C(c2cnccc2C(F)(F)F)C(C)C)c(F)c1 (racemic) [I-109]	0

same assay, conditions: active ingredient 250 g/ha, applied 4th day after transplantation, visually observed 21st day after application, 0 = non-treated, 100 = complete kill

Compound	Growth controlling degree (%) Rice [%]
CC(C)C(c1cnccc1C(F)(F)F)N(C)C(=O)COc1cc(F)ccc1F (stereo not drawn) [Compound I-245]	10

same assay, conditions: active ingredient 500 g/ha, applied 4th day after transplantation, visually observed 21st day after application, 0 = non-treated, 100 = complete kill

Compound	Growth controlling degree (%) Rice [%]
CC(C)C(c1cnccc1C(F)(F)F)N(C)C(=O)N(C)c1ccccc1 (stereo not drawn) [I-232]	60
